Experimental data reported in the supplement of paper PMC10307832.

Columns and labels:
Assay in all cases: relative viability (nuclei count vs DMSO), 5 days (fraction); higher = more cells survive
[1] = compound: COc1cc2c(Oc3ccc4[nH]c(C)cc4c3F)ncnc2cc1OCCCN1CCCC1 [Cediranib] + COc1cc2c(Oc3ccc(NC(=O)C4(C(=O)Nc5ccc(F)cc5)CC4)cc3F)ccnc2cc1OCCCN1CCOCC1 [Foretinib] (partner 0.25 µM)
Summary of the method: (§1)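 Lung cancer cell lines were pin-tool dosed in 1536-well plates on the day after seeding, with either a lone drug or a fixed anchor-drug dose plus five library-drug doses (not always all listed) in √10 steps. Nuclei were counted on 4× images after 5 days. Relative viability is the ratio of treated-well to vehicle-well nuclei counts, with each value a median of duplicate plates.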

[2] = compound: Nc1ncn([C@H]2C[C@H](O)[C@@H](CO)O2)c(=O)n1 [Decitabine] + CCNC(=O)c1noc(-c2cc(C(C)C)c(O)cc2O)c1-c1ccc(CN2CCOCC2)cc1 [Luminespib] (partner 0.01 µM)
Summary of the method: as §1

[3] = compound: Nc1ncn([C@H]2C[C@H](O)[C@@H](CO)O2)c(=O)n1 [Decitabine] + O=C(CCCCCCC(=O)Nc1ccccc1)NO [Vorinostat] (partner 1 µM)
Summary of the method: as §1

[4] = compound: O=C(C[C@H]1NCCC[C@@H]1O)Cn1cnc2cc(Br)c(Cl)cc2c1=O (racemic) [Halofuginone] + N=C(N)NC(=N)NCCc1ccccc1 [Phenformin] (partner 250 µM)
Summary of the method: as §1

## UMC-11
[1]; first compound 0.04 µM
  relative viability: 1.1
[1]; first compound 0.4 µM
  relative viability: 1.03
[1]; first compound 4 µM
  relative viability: 1.05
[2]; first compound 0.04 µM
  relative viability: 0.935
[2]; first compound 0.1265 µM
  relative viability: 0.773
[2]; first compound 0.4 µM
  relative viability: 0.559
[2]; first compound 1.265 µM
  relative viability: 0.382
[2]; first compound 4 µM
  relative viability: 0.372
[3]; first compound 0.04 µM
  relative viability: 0.269
[3]; first compound 0.1265 µM
  relative viability: 0.263
[3]; first compound 0.4 µM
  relative viability: 0.236
[3]; first compound 1.265 µM
  relative viability: 0.19
[3]; first compound 4 µM
  relative viability: 0.193
[4]; first compound 0.001 µM
  relative viability: 0.345
[4]; first compound 0.003162 µM
  relative viability: 0.343
[4]; first compound 0.01 µM
  relative viability: 0.324
[4]; first compound 0.03162 µM
  relative viability: 0.316
[4]; first compound 0.1 µM
  relative viability: 0.267
